Results: ChEMBL document CHEMBL1132959, “Design of potent dicyclic (1-5/4-10) gonadotropin releasing hormone (GnRH) antagonists” (J Med Chem, 2000)
Values belong to the compound of their own block, whether it stands above or below them.

Key:
[1] = target: T1, Gonadotropin-releasing hormone receptor (Rattus norvegicus, UniProt P30969); experiment: Affinity for rat gonadotrophin releasing hormone (GnRH) receptor using HEK293 cells transfected with rat Gonadotropin-releasing hormone receptor; type: cell-based; details: hek293
T1 sequence (P30969 whole entry): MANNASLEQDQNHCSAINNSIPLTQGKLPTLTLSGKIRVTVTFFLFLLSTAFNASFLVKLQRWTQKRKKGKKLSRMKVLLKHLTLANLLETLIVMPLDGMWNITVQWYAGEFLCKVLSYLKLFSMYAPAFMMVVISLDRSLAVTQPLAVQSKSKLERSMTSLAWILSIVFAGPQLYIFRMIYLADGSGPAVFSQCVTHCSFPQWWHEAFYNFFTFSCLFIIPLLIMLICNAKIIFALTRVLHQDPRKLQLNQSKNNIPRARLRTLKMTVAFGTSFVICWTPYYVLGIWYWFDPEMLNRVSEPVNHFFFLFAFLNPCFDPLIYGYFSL

Rattus norvegicus [2] = species: Rattus norvegicus; experiment: Antiovulatory potency at 100 ug/rat expressed as rats ovulating by total no. of rats (0/3); type: functional
Rattus norvegicus [3] = species: Rattus norvegicus; experiment: Antiovulatory potency at 50 ug/rat expressed as rats ovulating by total no. of rats (2/5); type: functional
Rattus norvegicus [4] = species: Rattus norvegicus; experiment: Antiovulatory potency at 25 ug/rat expressed as rats ovulating by total no. of rats (3/6); type: functional
Rattus norvegicus [5] = species: Rattus norvegicus; experiment: Antiovulatory potency at 10 ug/rat expressed as rats ovulating by total no. of rats (3/3); type: functional
Rattus norvegicus [6] = species: Rattus norvegicus; experiment: Antiovulatory potency at 100 ug/rat expressed as rats ovulating by total no. of rats (4/7); type: functional
Rattus norvegicus [7] = species: Rattus norvegicus; experiment: Antiovulatory potency at 250 ug/rat expressed as rats ovulating by total no. of rats (4/4); type: functional
Rattus norvegicus [8] = species: Rattus norvegicus; experiment: Antiovulatory potency at 100 ug/rat expressed as rats ovulating by total no. of rats (0/8); type: functional
Rattus norvegicus [9] = species: Rattus norvegicus; experiment: Antiovulatory potency at 25 ug/rat expressed as rats ovulating by total no. of rats (5/5); type: functional
Rattus norvegicus [10] = species: Rattus norvegicus; experiment: Antiovulatory potency at 50 ug/rat expressed as rats ovulating by total no. of rats (1/8); type: functional
Rattus norvegicus [11] = species: Rattus norvegicus; experiment: Antiovulatory potency at 10 ug/rat expressed as rats ovulating by total no. of rats (2/7); type: functional
Rattus norvegicus [12] = species: Rattus norvegicus; experiment: Antiovulatory potency at 5 ug/rat expressed as rats ovulating by total no. of rats (3/3); type: functional
Rattus norvegicus [13] = species: Rattus norvegicus; experiment: Antiovulatory potency at 25 ug/rat expressed as rats ovulating by total no. of rats (0/3); type: functional
Rattus norvegicus [14] = species: Rattus norvegicus; experiment: Antiovulatory potency at 10 ug/rat expressed as rats ovulating by total no. of rats (2/8); type: functional
Rattus norvegicus [15] = species: Rattus norvegicus; experiment: Antiovulatory potency at 500 ug/rat expressed as rats ovulating by total no. of rats (5/9); type: functional
Rattus norvegicus [16] = species: Rattus norvegicus; experiment: Antiovulatory potency at 250 ug/rat expressed as rats ovulating by total no. of rats (1/5); type: functional
Rattus norvegicus [17] = species: Rattus norvegicus; experiment: Antiovulatory potency at 100 ug/rat expressed as rats ovulating by total no. of rats (1/8); type: functional
Rattus norvegicus [18] = species: Rattus norvegicus; experiment: Antiovulatory potency at 250 ug/rat expressed as rats ovulating by total no. of rats (0/5); type: functional
Rattus norvegicus [19] = species: Rattus norvegicus; experiment: Antiovulatory potency at 1000 ug/rat expressed as rats ovulating by total no. of rats (3/3); type: functional
Rattus norvegicus [20] = species: Rattus norvegicus; experiment: Antiovulatory potency at 100 ug/rat expressed as rats ovulating by total no. of rats (14/14); type: functional
Rattus norvegicus [21] = species: Rattus norvegicus; experiment: Antiovulatory potency at 250 ug/rat expressed as rats ovulating by total no. of rats (0/4); type: functional

Ki [1]: 0.31 nM
SMILES: CC(=O)N[C@@H]1CC(=O)NCC(=O)NCCC[C@H]2NC(=O)[C@@H](CC(=O)NC[C@H](C(N)=O)NC(=O)[C@H]3CCCN3C(=O)[C@H](CCCN=C(N)N)NC(=O)[C@@H](CC(C)C)NC(=O)[C@@H](Cc3ccc4ccccc4c3)NC2=O)NC(=O)[C@@H](Cc2c[nH]c3ccccc23)NC(=O)[C@H](Cc2ccc(Cl)cc2)NC1=O
Ovulating rats (Rattus norvegicus [2]): 0
Ovulating rats (Rattus norvegicus [3]): 2
Ovulating rats (Rattus norvegicus [4]): 3
Ovulating rats (Rattus norvegicus [5]): 3

Ki [1]: 0.44 nM
SMILES: CC(=O)N[C@@H]1CCC(=O)NCC(=O)NC[C@H]2NC(=O)[C@@H](CC(=O)NC[C@H](C(N)=O)NC(=O)[C@H]3CCCN3C(=O)[C@H](CCCN=C(N)N)NC(=O)[C@@H](CC(C)C)NC(=O)[C@@H](Cc3ccc4ccccc4c3)NC2=O)NC(=O)[C@@H](Cc2c[nH]c3ccccc23)NC(=O)[C@H](Cc2ccc(Cl)cc2)NC1=O
Ovulating rats (Rattus norvegicus [11]): 2
Ovulating rats (Rattus norvegicus [12]): 3

Ki [1]: 0.49 nM
SMILES: CC(=O)N[C@@H]1CC(=O)NCC(=O)NC[C@H]2NC(=O)[C@@H](CC(=O)NC[C@H](C(N)=O)NC(=O)[C@H]3CCCN3C(=O)[C@H](CCCN=C(N)N)NC(=O)[C@@H](CC(C)C)NC(=O)[C@@H](Cc3ccc4ccccc4c3)NC2=O)NC(=O)[C@@H](Cc2c[nH]c3ccccc23)NC(=O)[C@H](Cc2ccc(Cl)cc2)NC1=O
Ovulating rats (Rattus norvegicus [13]): 0
Ovulating rats (Rattus norvegicus [14]): 2

The next lines start with the compound.

SMILES: CC(=O)N[C@H](Cc1ccc2ccccc2c1)C(=O)N[C@H](Cc1ccc(Cl)cc1)C(=O)N[C@@H]1CC(=O)NCCCC[C@@H]2NC(=O)[C@H](CC(C)C)NC(=O)[C@@H](Cc3ccc4ccccc4c3)NC(=O)[C@H](CCCN=C(N)N)NC(=O)[C@H](CC(=O)NC[C@@H](C(N)=O)NC(=O)[C@@H]3CCCN3C2=O)NC1=O
Ovulating rats (Rattus norvegicus [6]): 4
Ovulating rats (Rattus norvegicus [7]): 4

SMILES: CC(=O)N[C@@H]1CCC(=O)NCC(=O)NCC[C@@H]2NC(=O)[C@@H](CC(=O)NC[C@H](C(N)=O)NC(=O)[C@H]3CCCN3C(=O)[C@H](CCCN=C(N)N)NC(=O)[C@@H](CC(C)C)NC(=O)[C@@H](Cc3ccc4ccccc4c3)NC2=O)NC(=O)[C@@H](Cc2c[nH]c3ccccc23)NC(=O)[C@H](Cc2ccc(Cl)cc2)NC1=O
Ovulating rats (Rattus norvegicus [8]): 0
Ovulating rats (Rattus norvegicus [9]): 5
Ovulating rats (Rattus norvegicus [10]): 1

SMILES: CC(=O)N[C@@H]1CC(=O)NC[C@@H]2NC(=O)[C@@H](CC(=O)NC[C@H](C(N)=O)NC(=O)[C@H]3CCCN3C(=O)[C@H](CCCN=C(N)N)NC(=O)[C@@H](CC(C)C)NC(=O)[C@@H](Cc3ccc4ccccc4c3)NC2=O)NC(=O)[C@@H](Cc2c[nH]c3ccccc23)NC(=O)[C@H](Cc2ccc(Cl)cc2)NC1=O
Ovulating rats (Rattus norvegicus [15]): 5
Ki [1]: 4.8 nM
Ovulating rats (Rattus norvegicus [16]): 1

SMILES: CC(=O)N[C@@H]1CCC(=O)NCC[C@H]2NC(=O)[C@@H](CC(=O)NC[C@H](C(N)=O)NC(=O)[C@H]3CCCN3C(=O)[C@H](CCCN=C(N)N)NC(=O)[C@@H](CC(C)C)NC(=O)[C@@H](Cc3ccc4ccccc4c3)NC2=O)NC(=O)[C@@H](Cc2c[nH]c3ccccc23)NC(=O)[C@H](Cc2ccc(Cl)cc2)NC1=O
Ki [1]: 1.7 nM
Ovulating rats (Rattus norvegicus [17]): 1
Ovulating rats (Rattus norvegicus [18]): 0

SMILES: CC(=O)N[C@H](Cc1ccc2ccccc2c1)C(=O)N[C@H](Cc1ccc(Cl)cc1)C(=O)N[C@@H]1CCC(=O)NCCCC[C@@H](C(=O)N2CCC[C@H]2C(=O)N[C@H](C)C(N)=O)NC(=O)[C@H](CC(C)C)NC(=O)[C@@H](Cc2ccc3ccccc3c2)NC(=O)[C@H](CCCN=C(N)N)NC(=O)[C@H](C)NC1=O
Ovulating rats (Rattus norvegicus [19]): 3

SMILES: CC(=O)N[C@H](Cc1ccc2ccccc2c1)C(=O)N[C@H](Cc1ccc(Cl)cc1)C(=O)N[C@@H]1CC(=O)NCC[C@@H](C(=O)N2CCC[C@H]2C(=O)N[C@H](C)C(N)=O)NC(=O)[C@H](CC(C)C)NC(=O)[C@@H](Cc2ccc3ccccc3c2)NC(=O)[C@H](CCCN=C(N)N)NC(=O)[C@H](C)NC1=O
Ovulating rats (Rattus norvegicus [20]): 14
Ovulating rats (Rattus norvegicus [21]): 0
